Source: patent publication EP4768032A1, “RAGE-TARGETED RNAI AGENT AND PHARMACEUTICAL USE THEREOF” (Tuojie Biotech (Shanghai) Co., Ltd., priority 2023, dated 2025)

Tested on: human RAGE
Test: psiCHECK on-target activity at 9 concentration points in HEK293A cells, dual-luciferase reporter (Example 8)
Assay type: cell-based
Conditions: psiCHECK system, Table 9
Text: As used herein, the term "inhibit" is used interchangeably with "decrease", "silence", "down-regulate", "repress", and other similar terms, and includes any level of inhibition. Inhibition can be assessed in terms of a decrease in the absolute or relative level of one or more of these variables relative to a control level. The control level can be any type of control level used in the art, such as a pre-dose baseline level or a level determined from an untreated or control (e.g., buffer-only control or inert agent control) treated subject, cell, or sample. […] The inhibition rate of target gene expression can be measured using a Dual-Glo® Luciferase Assay System: the Firefly chemiluminescence value (Fir) and the Renilla chemiluminescence value (Ren) are each read, and the relative value Ratio = Ren/Fir is calculated. In the present disclosure, the ratio of the remaining mRNA expression level (or residual activity%) = Ratio (RNAi agent-treated group)/Ratio (RNAi agent-free control group), and the inhibition rate (%) = 100% - remaining mRNA expression level (%).
RNAi agents were subjected to an in vitro molecular-level simulation of on-target activity screening in HEK293A cells using 9 concentration gradients.
HEK293A cells were cultured at 37 °C with 5% CO2 in a DMEM high-glucose culture medium containing 10% fetal bovine serum. 24 h prior to transfection, the HEK293A cells were seeded into a 96-well plate at a density of 1 × 10^4 cells per well, with each well containing 100 µL of the culture medium.
The cells were co-transfected with the RNAi agents and corresponding plasmids using Lipofectamine2000 (ThermoFisher, 11668019) according to the instructions, with 0.3 µL of Lipofectamine2000 used per well. The amount of plasmids for transfection was 20 ng per well. For on-target sequence plasmids, a total of 9 concentration points were set for the RNAi agents; the highest concentration point final concentration was 20 nM, and a 3-fold serial dilution was performed to obtain 20.0000 nM, 6.6667 nM, 2.2222 nM, 0.7407 nM, 0.2469 nM, 0.0823 nM, 0.0274 nM, 0.0091 nM, and 0.0030 nM. 24 h after transfection, the on-target levels were determined using a Dual-Luciferase Reporter Assay System (Promega, E2940). Table 9. The IC50 activity of RNAi agents in a psiCHECK system

Row | Substance | IC50 [nM]
1 | TJR103637-TJ-16: RNAi agent containing targeting ligand I-14: SS strand SEQ ID NO: 25, AS strand SEQ ID NO: 51 (sense CUUUUCUUUUUCCCUUGAA; antisense UUCAAGGGAAAAAGAAAAGGG; targeting ligand I-14 conjugated, modification pattern not given here) | 0.83
2 | TJR103633-TJ-16: RNAi agent containing targeting ligand I-14: SS strand SEQ ID NO: 21, AS strand SEQ ID NO: 47 (sense CUGUCAGCAUCAGCAUCAA; antisense UUGAUGCUGAUGCUGACAGCA; targeting ligand I-14 conjugated, modification pattern not given here) | 0.343
3 | TJR103636-TJ-16: RNAi agent containing targeting ligand I-14: SS strand SEQ ID NO: 24, AS strand SEQ ID NO: 50 (sense CAGUCGGAGCUAAUGGUGA; antisense UCACCAUUAGCUCCGACUGCA; targeting ligand I-14 conjugated, modification pattern not given here) | 0.287
4 | TJR103638-TJ-16: RNAi agent containing targeting ligand I-14: SS strand SEQ ID NO: 26, AS strand SEQ ID NO: 52 (sense CCUUUUCUUUUUCCCUUGA; antisense UCAAGGGAAAAAGAAAAGGGA; targeting ligand I-14 conjugated, modification pattern not given here) | 0.973
5 | TJR103634-TJ-16: RNAi agent containing targeting ligand I-14: SS strand SEQ ID NO: 22, AS strand SEQ ID NO: 48 (sense GACCAACUCUCUCCUGUAA; antisense UUACAGGAGAGAGUUGGUCUG; targeting ligand I-14 conjugated, modification pattern not given here) | 0.378
6 | TJR103635-TJ-16: RNAi agent containing targeting ligand I-14: SS strand SEQ ID NO: 23, AS strand SEQ ID NO: 49 (sense AGAGGAGGAGCGUGCAGAA; antisense UUCUGCACGCUCCUCCUCUUC; targeting ligand I-14 conjugated, modification pattern not given here) | 0.636
